Measured values from paper PMC7069944, “Amino acid levels determine metabolism and CYP450 function of hepatocytes and hepatoma cell lines” (Nature Communications, 2020).
Where “and” joins values, the source holds several entries; their conditions need not be identical. Equal values may be shown once. Read-outs that look alike come from different tables or passages of the source.

How the values were obtained:
CYP3A4 [1] = target: CYP3A4 (Homo sapiens, UniProt P08684)
Method: Comparative CYP450 biotransformation studies were performed to assess functionality across a number of gold standard primary hepatocyte models. Cryopreserved PHHs were obtained from a single donor (Lonza, Breda, The Netherlands) or pooled donors (Thermo Scientific, Merelbeke, Belgium). Upon thawing, cell suspensions (0.5 million cells/ml) were prepared in WE medium using 24-well plates (0.5 ml/well) on an orbital shaker and metabolization activity was assessed following a 15 min equilibration period. Human Hepatopac® plates were obtained from Ascendance Biotechnology (Ascendance Biotechnology, Boston USA) and cultures were maintained following instructions of the provider. Spheroid cultures were generated in-house as essentially described by Bell et al.[42].
Finally, the system was re-equilibrated at 60% (A)/40% (B) for an additional 0.7 min. Total run time was 3.8 min and 2 µl aliquots were injected onto the system for analysis.
All data collection, processing, and analysis was performed with Analyst® software (v1.6.2. SCIEX).

CYP3A4 [2] = test: qRT-PCR CYP3A4 expression in HepG2; type: cell-based, human; settings: single amino acid supplementation, relative to CTL (CTL values equal HepG2 D7 CTL)
Method: AA supplementation was accomplished through the addition of MEM Non-Essential Amino Acids Solution (100 × ) and MEM Amino Acids Solution (50 × ) (Thermo Scientific) to the culture medium. For AA1, AA2, and AA3 medium, we added respectively 2 ml, 8 ml, and 16 ml of non-essential AA solution and 1 ml, 4 ml, and 8 ml of essential AA solution per 100 ml of LDM, with or without glucose. Culture medium was then made PH neutral through the addition of NaOH. […] PSC derived HLCs were differentiated in LDM until D12. AA supplementation (AA1, AA2 and AA3) was performed from day 12 until day 20, 30 or 40 of differentiation. […] HepG2, HUH7.5, Hep3B, HHL5, and HEK293 cells were maintained in DMEM supplemented with 10% fetal bovine serum as shown in Supplementary Table 4. AA supplementation consisted of addition of 16 ml of non-essential AA mix and 8 ml of essential AA mix per 100 ml of medium and a further addition of 20 g/l of any of the single AAs. […] PHHs were maintained in a medium composition that was based on WE as detailed in ref. [67].
RNA extraction was performed using the GenElute Mammalian Total RNA Miniprep Kit (Sigma-Aldrich). Then, genomic DNA was eliminated using the On-Column DNase I Digestion kit (Sigma-Aldrich). Last, 1 µg of RNA was transcribed to cDNA using the Superscript III First-Strand synthesis (Invitrogen). Gene expression analysis was performed using the Platinum SYBR green qPCR supermix-UDG kit (Invitrogen) in a ViiA 7 Real-Time PCR instrument (Thermo Scientific, Waltham, MA). The sequences of all used qRT-PCR primers are listed in Supplementary Table 6. Of these, ribosomal protein L19 (RPL19) was used as a housekeeping gene for normalization.

HLCs = test: Single-exposure toxicity, Hoechst/DRAQ7 live cell number, HLCs
Method: (§1) PSCs were differentiated in a 384-well format. Cells were treated with 14 different concentrations of compounds in 6 repeats. As a negative control, 41 wells were left untreated. HepG2 were seeded at 40,000 cells per well. For control conditions, HepG2 were exposed after 2 days of culture. […] Cells were fixed with 4% PFA. Imaging was done using an Operetta High-Content Imaging System (Perkin Elmer) and image analysis was performed using Harmony software (Perkin Elmer). […] As a positive control, 1 donor of PHHs was seeded at 10,000 cells per well. Drugs were administrated after 8 h of attachment.

HepG2 = test: Single-exposure toxicity, Hoechst/DRAQ7 live cell number, HepG2; settings: for IC50 single exposure, Mean: HepG2 CTL D7; for IC50: Homo sapiens
Method: as §1

PHHs = test: Single-exposure toxicity, Hoechst/DRAQ7 live cell number, PHH 12 h; settings: Homo sapiens, read-out: IC50 single exposure, Mean
Method: as §1

[3] = system: HC6X in the H9-ESC background; test: Single-exposure toxicity, Hoechst/DRAQ7 live cell number, HC6X (H9-ESC); settings: for IC50: Homo sapiens
Method: as §1

[4] = system: HC6X in the BJ1-iPSC background; test: Single-exposure toxicity, Hoechst/DRAQ7 live cell number, HC6X (BJ1-iPSC); settings: Homo sapiens
Method: as §1

[5] = system: cells cultured in AAGLY medium; test: Single-exposure toxicity, summary value of this study (Boon et al); type: cell-based; settings: Homo sapiens, single 24 h exposure
Method: To evaluate the ability to predict hepatotoxicity, we adapted the differentiation assays to a 384-well format. […] As a readout, we evaluated cell viability by resazurin conversion and correlated the results to therapeutic doses (Cmax values).
PSCs were differentiated in a 384-well format. […] As a negative control, 41 wells were left untreated. HepG2 were seeded at 40,000 cells per well. […] Cells were fixed with 4% PFA. […] Drugs were administrated after 8 h of attachment.

Spheroid of PHHs = system: Spheroid of PHHs; set-up: method as in ref 3 (a number printed in a supplementary file, which may have a reference list of its own: not looked up in the article's list); settings: 48h, ATP; cited from earlier work
[6] = system: Co-culture of endothelial cells and mouse hepatocytes; set-up: method as in ref 12 (a number printed in a supplementary file, which may have a reference list of its own: not looked up in the article's list); settings: 36h, Cell count; cited from earlier work
PHH = system: PHH; set-up: method as in ref 15 (a number printed in a supplementary file, which may have a reference list of its own: not looked up in the article's list); settings: 24h, ALT release; cited from earlier work
Cryopreserved PHH = system: Cryopreserved PHH; set-up: method as in ref 16 (a number printed in a supplementary file, which may have a reference list of its own: not looked up in the article's list); settings: 48h, ATP; cited from earlier work
Rat hepatocytes = system: Rat hepatocytes; set-up: method as in ref 17 (a number printed in a supplementary file, which may have a reference list of its own: not looked up in the article's list); settings: 24h, MTT; cited from earlier work
[7] = system: Co-culture of PHHs and fibroblasts; set-up: method as in ref 4 (a number printed in a supplementary file, which may have a reference list of its own: not looked up in the article's list); settings: 24h, ATP; cited from earlier work
[8] = HepG2, read-out: IC50 single exposure, Mean, HepG2 AAGLY D30
[9] = HepG2, read-out: IC50 single exposure, Mean, HepG2 AAGLY D40
[10] = read-out: IC50 single exposure, Mean, H9 HC6X AAGLY D40
[11] = read-out: IC50 single exposure, Mean, H9 HC6X AAGLY D50
[12] = read-out: IC50 single exposure, Mean, BJ1 HC6X AAGLY D40
[13] = read-out: IC50 single exposure, Mean, BJ1 HC6X AAGLY D50

Chain of CYP3A4 (Homo sapiens, UniProt P08684) (P08684 whole entry): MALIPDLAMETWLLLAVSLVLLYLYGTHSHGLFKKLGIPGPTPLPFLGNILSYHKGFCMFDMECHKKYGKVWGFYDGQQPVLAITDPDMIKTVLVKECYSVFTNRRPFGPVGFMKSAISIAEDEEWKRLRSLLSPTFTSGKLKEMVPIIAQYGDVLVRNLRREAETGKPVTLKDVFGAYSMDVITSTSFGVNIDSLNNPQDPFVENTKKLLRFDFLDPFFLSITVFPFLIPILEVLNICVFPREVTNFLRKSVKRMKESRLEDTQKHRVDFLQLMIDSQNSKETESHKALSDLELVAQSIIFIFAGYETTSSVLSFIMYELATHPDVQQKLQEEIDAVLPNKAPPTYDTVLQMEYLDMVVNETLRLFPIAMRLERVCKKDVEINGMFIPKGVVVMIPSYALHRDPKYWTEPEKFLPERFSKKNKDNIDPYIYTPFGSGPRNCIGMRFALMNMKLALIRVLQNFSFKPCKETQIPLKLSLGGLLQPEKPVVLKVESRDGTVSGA

| Structure (SMILES) | IC50 single exposure, Mean (HLCs; H9 HLC LDM D40) | IC50 single exposure, Mean (HepG2) | IC50 (HepG2; [8]) | IC50 (HepG2; [9]) | IC50 (PHHs) | IC50 [3, 10] | IC50 [3, 11] | IC50 [4, 12] | IC50 [4, 13] | also measured |
| --- | --- | --- | --- | --- | --- | --- | --- | --- | --- | --- |
| OCc1ncc2n1-c1ccc(Cl)cc1C(c1ccccc1F)=NC2 [1-OH midazolam] | – | – | – | – | – | – | – | – | – | 1-OH midazolam formation (drug biotransformation cocktail) (CYP3A4 [1]; HepG2 AAGLY D32): 5.9655 and 7.1394 and 9.0214; 1-OH midazolam formation (drug biotransformation cocktail) (CYP3A4 [1]; Hepatopac): 23.2481 and 33.0328 and 45.6546; 1-OH midazolam formation (drug biotransformation cocktail) (CYP3A4 [1]; PHH1): 5.4616 and 6.486 |
| O=C(O)[C@@H]1CCCN1 [PRO, proline] | – | – | – | – | – | – | – | – | – | Relative CYP3A4 expression (CYP3A4 [2]): 252.463 and 338.714 and 412.836 |
| C=C(C)[C@H]1Cc2c(ccc3c2O[C@@H]2COc4cc(OC)c(OC)cc4[C@@H]2C3=O)O1 [rotenone] | No toxicity | No toxicity | 8.83e-07 mM | 2.51e-06 mM | 1.28e-06 mM | 8.28e-06 mM | 4.2e-06 mM | 2.56e-06 mM | 7.5e-06 mM | IC50 (HLCs; Homo sapiens, read-out: IC50 single exposure, Mean): 5.39 nM |
| Cc1ncc2n1-c1ccc(Cl)cc1C(c1ccccc1F)=NC2 [midazolam] | – | – | – | – | – | – | – | – | – | midazolam biotransformation compared with PHHs (CYP3A4 [1]; HepG2 AAGLY D32 and HC6X AAGLY D40, single exposure): equal to that of PHHs |
| CC(=O)Nc1ccc(O)cc1 [APAP, acetaminophen] | No toxicity | no toxicity | 11.9 mM | 12 mM | 13.3 mM | 12.1 mM | 9.91 mM | 12 mM | 8.66 mM | IC50 [5]: 10 mM; IC50 (Spheroid of PHHs): 10 mM; IC50 [6]: 7 mM; IC50 (PHH): ~10 mM; IC50 (Cryopreserved PHH): > 25 mM; IC50 (Rat hepatocytes): 7.6 mM; IC50 [7]: 5.5 mM; IC50 single exposure, Mean (HLCs; H9 HLC AAGLY D40): No toxicity; toxicity after single administration (HLCs; HLC cultured in basal medium): no toxicity; toxicity after single administration (HepG2; HepG2 cultured in basal medium): no toxicity; toxicity after single administration ([3]; HC6X cultured in basal medium): no toxicity |
